Measured values reported in patent US20230398112A1, “SPRAY-DRIED METAL-ORGANIC FRAMEWORKS FOR TREATMENT AND/OR DIAGNOSIS OF PULMONARY DISEASE” (priority 2020, published 2023).

Legend:
[1] = Thermogravimetric analysis (TGA), thermal stability; type: physicochemical; details: under air at 3° C./min
Description: The loss of ca 10 wt. % below 100° C. is attributable to crystallized water leading to a dark blue anhydrous Cu(POA)2 crystalline phase, which can also be instantaneously obtained by exposing the hydrated phase to various organic solvents (i.e. MeOH, EtOH and DMF). […] Fourier-transform infrared spectroscopy (FTIR) analysis also clearly distinguishes between the two phases, as an absorption band attributed to coordinated water at 3.400 cm^−1 can be seen for the hydrated form in FIG. 1D.

Mtb = details: delivered orally; cited from earlier work

SMILES: O=C(O)c1cnccn1 [POA, pyrazinoic acid]
- thermal stability (TGA) [1]: 100-200 °C
- efficacy as TB therapy (Mtb): ineffective
